Experimental data: the NIST ThermoML archive (doi:10.1016/j.jct.2014.10.007)
Several values for one entry are separate records, joined by “and”; a condition that tells them apart may be missing. Identical values can stand only once. ± gives the expanded uncertainty stated by the source.

Assay: molar heat capacity at constant pressure; xn = mol fraction of the nth substance listed
Settings: 1 kPa, Liquid, Small sample (50 mg) DSC

[Ca+2].[F-].[F-] [calcium fluoride] + [F-].[Li+]
Settings | molar heat capacity at constant pressure
1255 K, x1 = 0.25 | 98.98 ± 10 J/K/mol
1255.2 K, x1 = 0.125 | 70.22 ± 7.2 J/K/mol
1255.2 K, x1 = 0.375 | 113.91 ± 12 J/K/mol
1274.7 K, x1 = 0.25 | 102.2 ± 10 J/K/mol
1275 K, x1 = 0.375 | 118.44 ± 12 J/K/mol
1275.1 K, x1 = 0.125 | 82.4 ± 8.3 J/K/mol
1294.9 K, x1 = 0.25 | 103.71 ± 10 J/K/mol
1294.9 K, x1 = 0.375 | 121.83 ± 12 J/K/mol
1305.1 K, x1 = 0.125 | 80.92 ± 8.2 J/K/mol
1314.9 K, x1 = 0.25 | 96.32 ± 9.7 J/K/mol
1315.2 K, x1 = 0.375 | 118.21 ± 12 J/K/mol
1325.3 K, x1 = 0.125 | 79.47 ± 8 J/K/mol
1334.9 K, x1 = 0.5 | 133.92 ± 14 J/K/mol and 120.41 ± 12 J/K/mol
1335.2 K, x1 = 0.25 | 98.52 ± 9.9 J/K/mol
1335.2 K, x1 = 0.375 | 115.41 ± 12 J/K/mol
1345.4 K, x1 = 0.125 | 83.81 ± 8.5 J/K/mol
1354.9 K, x1 = 0.5 | 125.69 ± 13 J/K/mol and 133.39 ± 13 J/K/mol
1355.4 K, x1 = 0.125 | 82.43 ± 8.3 J/K/mol
1355.5 K, x1 = 0.375 | 116.94 ± 12 J/K/mol
1355.6 K, x1 = 0.25 | 98.96 ± 10 J/K/mol
1375.4 K, x1 = 0.5 | 130.29 ± 13 J/K/mol and 135.8 ± 14 J/K/mol
1375.5 K, x1 = 0.375 | 117.98 ± 12 J/K/mol
1375.7 K, x1 = 0.125 | 75.1 ± 7.6 J/K/mol
1375.7 K, x1 = 0.25 | 95.16 ± 9.6 J/K/mol
1395.9 K, x1 = 0.5 | 132.9 ± 13 J/K/mol and 134.28 ± 14 J/K/mol
1396 K, x1 = 0.125 | 81.03 ± 8.2 J/K/mol
1396.1 K, x1 = 0.25 | 106.8 ± 11 J/K/mol
1396.2 K, x1 = 0.375 | 111.04 ± 11 J/K/mol
1415.9 K, x1 = 0.5 | 130.4 ± 13 J/K/mol and 137.28 ± 14 J/K/mol
1416 K, x1 = 0.125 | 75.28 ± 7.6 J/K/mol
1416.1 K, x1 = 0.25 | 101.47 ± 10 J/K/mol
1416.1 K, x1 = 0.375 | 112.61 ± 11 J/K/mol
1436.2 K, x1 = 0.125 | 76.95 ± 7.8 J/K/mol
1436.2 K, x1 = 0.5 | 135.89 ± 14 J/K/mol and 130.39 ± 13 J/K/mol
1436.3 K, x1 = 0.375 | 112.16 ± 11 J/K/mol
1436.4 K, x1 = 0.25 | 102.59 ± 10 J/K/mol
1456.5 K, x1 = 0.375 | 120.54 ± 12 J/K/mol
1456.5 K, x1 = 0.5 | 134.58 ± 14 J/K/mol and 132.82 ± 13 J/K/mol
1456.6 K, x1 = 0.125 | 77.21 ± 7.8 J/K/mol
1456.8 K, x1 = 0.25 | 102.41 ± 10 J/K/mol
1476.7 K, x1 = 0.5 | 147.97 ± 15 J/K/mol and 127.49 ± 13 J/K/mol
1476.8 K, x1 = 0.125 | 83.38 ± 8.4 J/K/mol
1476.9 K, x1 = 0.375 | 111.58 ± 11 J/K/mol
1477 K, x1 = 0.25 | 101.6 ± 10 J/K/mol
1497.1 K, x1 = 0.125 | 90.8 ± 9.2 J/K/mol
1497.1 K, x1 = 0.375 | 123.99 ± 13 J/K/mol
1497.1 K, x1 = 0.5 | 143.74 ± 15 J/K/mol and 127.89 ± 13 J/K/mol
1497.2 K, x1 = 0.25 | 101.05 ± 10 J/K/mol
1517.3 K, x1 = 0.125 | 97.18 ± 9.8 J/K/mol
1517.4 K, x1 = 0.5 | 142.13 ± 14 J/K/mol and 123.38 ± 13 J/K/mol
1517.5 K, x1 = 0.375 | 109.29 ± 11 J/K/mol
1517.6 K, x1 = 0.25 | 104.18 ± 11 J/K/mol
